Measured values as given in patent publication US12065443B2, “Compounds and pharmaceutical compositions thereof for the treatment of diseases” (priority 2017, dated 2024).

Legend:
[1] = test system: LPS-induced TNFα secretion in monocyte-derived macrophages (MdM); assay: MdM assay: LPS-triggered TNFα (ELISA); type: cell-based, human; conditions: Homo sapiens, Macrophage, LPS-triggered TNFα inhibition
Procedure, shortened: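 Human CD14+ monocytes isolated from buffy-coat PBMCs by magnetic beads, differentiated to macrophages; on day 10 compound preincubated 1 h at 37 °C, then LPS 200 ng/mL added (0.2% DMSO). Supernatant taken after 20 h; TNFα quantified by sandwich ELISA against standard curve.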

[2] = test system: LPS triggered IL-10 secretion in monocyte-derived macrophages (MdM); assay: MdM assay: LPS-triggered IL-10 (ELISA); type: cell-based, human; conditions: maximal fold change vs LPS only, median across assays
Method: This assay evaluates illustrative compounds of the invention for their inhibition of LPS-induced TNFα and LPS triggered IL-10 secretion in monocyte-derived macrophages.
PBMCs are isolated from human blood samples (buffycoats). The buffy coat is aseptically transferred into a 50 mL Falcon tube, and diluted 1/2 in PBS. Falcon tubes are filled with 20 mL Lymphoprep™, on top of which 25 mL of the buffy coat is carefully added, tubes are centrifuged for 35 min at 400 g in temperature controlled centrifuge, without brake, at 25° C. PBMCs are aspirated from the white interface layer between sample and Lymphoprep™. PBMCs are washed five times in PBS.
PBMCs are centrifuged at 300×g for 10 min and resuspended at a density of 1.0E07 cells/80 μL Miltenyi buffer (PBS, pH 7.4, 1% FBS, 2 mM EDTA).
Starting from this point of the protocol all steps are performed on ice. 20 μL of CD14+ micro-beads are added per 1.0E07 cells, the tube is mixed and incubated for 15 min in the fridge at 4° C. Cell suspension volume is adjusted to total volume of 100 mL using Miltenyi buffer, mixed gently and subsequently centrifuged for 10 min at 300× g. Supernantant is discarded and cell pellet is resuspended in 12 mL of Miltenyi buffer.
Four LS columns are placed in the MACS Separator (magnet) from Miltenyi Biotec, and are prewet by rinsing with 3 mL of MACS buffer per column. Three mL of cell suspension is added onto the column (max 1*10^8 of labelled cells/column), and columns are subsequently washed 3 times with 3 mL of Miltenyi buffer.
The columns are removed from the magnets, and 5 mL of Miltenyi buffer are added to the column to flush out the CD14+ fraction by pushing the plunger into the column. The flushed fractions are collected in a fresh 50 mL Falcon and volume is adjusted to 30 mL using Miltenyi buffer, cells are centrifuged for 10 min at 300× g. The obtained cell pellet is resuspended in 10 mL RPMI w/o FBS, and cell density is determined using a hematologic analyser (Sysmex XS-500i).
On day 10, MdMs are triggered and compound is added.
A compound dilution plate is made in 100% DMSO by 3-fold dilution of 10 mM stock solution. An intermediate dilution plate (10× final concentration) is made by diluting the compound dilution plate 50-fold in RPMI medium.
Medium is carefully removed from cell plates using multichannel pipette, and replaced by 80 μL fresh medium. 10 μL of the 10× final concentration compound is added to the cells and incubated for 1 hour at 37° C. before addition of trigger. No trigger conditions/trigger conditions are spiked with equal final DMSO concentrations of 0.2% DMSO. 10 μL of 10×LPS (final conc. 200 ng/mL) solution are added to all wells except for the ‘no trigger wells’ where 10 μL medium is added. Supernatant is collected after 2 h (IL-10 determination) and after 20 h (TNFα determination) of LPS triggering.
Plates are washed three times with PBST, where after 100 μL of Strep-HRP conjugate (0.5 μg/mL final concentration diluted in dilution buffer) is added. Plates are incubated in the dark, at 37° C. for 30 min. Plates are washed three times with PBST. […] 100 μL of substrate solution is added to each well and incubated until brilliant blue color develops. The reaction is stopped by adding 50 μL of 1 M H2SO4, after which absorbance is measured at 450 nm on the SpectraMax i3, Molecular Devices.
To quantify these inductions fold changes (FC) compared to ‘LPS only’ are calculated for each concentration tested and the maximal FC is calculated (IL-10 FCmax):
[formula] wherein ABS=Absorbance measured at 450 nm.
The median maximal FC for test compounds across two or more assays is reported (IL-10FCmax median).

[3] = target: T1, SIK1 (Homo sapiens, UniProt P57059); assay: biochemical; conditions: 33P radioactive SIK kinase assay, AMARA peptide, 10 μM ATP; read-out: SIK1 IC50
T1 construct: purchased Carna Biosciences 02-131
T1 sequence (P57059 whole entry): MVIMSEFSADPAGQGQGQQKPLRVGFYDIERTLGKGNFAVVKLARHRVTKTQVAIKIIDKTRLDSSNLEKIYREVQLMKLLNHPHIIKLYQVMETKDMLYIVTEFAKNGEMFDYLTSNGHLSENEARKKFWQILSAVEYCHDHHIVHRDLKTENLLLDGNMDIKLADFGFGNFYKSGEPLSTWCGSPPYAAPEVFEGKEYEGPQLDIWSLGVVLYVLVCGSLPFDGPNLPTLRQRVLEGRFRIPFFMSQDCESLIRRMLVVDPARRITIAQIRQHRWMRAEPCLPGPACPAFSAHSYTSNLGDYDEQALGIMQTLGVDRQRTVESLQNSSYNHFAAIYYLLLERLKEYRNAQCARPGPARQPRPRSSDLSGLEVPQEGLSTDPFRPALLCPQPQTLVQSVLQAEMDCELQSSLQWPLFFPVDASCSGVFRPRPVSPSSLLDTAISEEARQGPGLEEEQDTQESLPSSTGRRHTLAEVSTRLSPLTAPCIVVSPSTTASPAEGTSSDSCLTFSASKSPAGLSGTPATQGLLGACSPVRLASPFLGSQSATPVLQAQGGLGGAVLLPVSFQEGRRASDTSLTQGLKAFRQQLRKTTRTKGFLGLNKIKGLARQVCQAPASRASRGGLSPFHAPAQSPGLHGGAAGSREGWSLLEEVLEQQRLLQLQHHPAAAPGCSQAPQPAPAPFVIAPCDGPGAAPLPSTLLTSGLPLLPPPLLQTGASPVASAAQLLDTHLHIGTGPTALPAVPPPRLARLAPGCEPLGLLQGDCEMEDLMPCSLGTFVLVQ
Procedure, shortened: (§1)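 AMARA peptide phosphorylation by SIK1–3 is quantified through ^33P uptake from a labeled/unlabeled ATP blend. Staurosporine at 10 μM final defines full inhibition, 1% DMSO the uninhibited signal. Quench uses phosphoric acid; counting follows filter capture.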

[4] = target: T2, SIK3 (Homo sapiens, UniProt Q9Y2K2); assay: biochemical
T2 construct: purchased SignalChem S12-11G-100
T2 sequence (Q9Y2K2 whole entry): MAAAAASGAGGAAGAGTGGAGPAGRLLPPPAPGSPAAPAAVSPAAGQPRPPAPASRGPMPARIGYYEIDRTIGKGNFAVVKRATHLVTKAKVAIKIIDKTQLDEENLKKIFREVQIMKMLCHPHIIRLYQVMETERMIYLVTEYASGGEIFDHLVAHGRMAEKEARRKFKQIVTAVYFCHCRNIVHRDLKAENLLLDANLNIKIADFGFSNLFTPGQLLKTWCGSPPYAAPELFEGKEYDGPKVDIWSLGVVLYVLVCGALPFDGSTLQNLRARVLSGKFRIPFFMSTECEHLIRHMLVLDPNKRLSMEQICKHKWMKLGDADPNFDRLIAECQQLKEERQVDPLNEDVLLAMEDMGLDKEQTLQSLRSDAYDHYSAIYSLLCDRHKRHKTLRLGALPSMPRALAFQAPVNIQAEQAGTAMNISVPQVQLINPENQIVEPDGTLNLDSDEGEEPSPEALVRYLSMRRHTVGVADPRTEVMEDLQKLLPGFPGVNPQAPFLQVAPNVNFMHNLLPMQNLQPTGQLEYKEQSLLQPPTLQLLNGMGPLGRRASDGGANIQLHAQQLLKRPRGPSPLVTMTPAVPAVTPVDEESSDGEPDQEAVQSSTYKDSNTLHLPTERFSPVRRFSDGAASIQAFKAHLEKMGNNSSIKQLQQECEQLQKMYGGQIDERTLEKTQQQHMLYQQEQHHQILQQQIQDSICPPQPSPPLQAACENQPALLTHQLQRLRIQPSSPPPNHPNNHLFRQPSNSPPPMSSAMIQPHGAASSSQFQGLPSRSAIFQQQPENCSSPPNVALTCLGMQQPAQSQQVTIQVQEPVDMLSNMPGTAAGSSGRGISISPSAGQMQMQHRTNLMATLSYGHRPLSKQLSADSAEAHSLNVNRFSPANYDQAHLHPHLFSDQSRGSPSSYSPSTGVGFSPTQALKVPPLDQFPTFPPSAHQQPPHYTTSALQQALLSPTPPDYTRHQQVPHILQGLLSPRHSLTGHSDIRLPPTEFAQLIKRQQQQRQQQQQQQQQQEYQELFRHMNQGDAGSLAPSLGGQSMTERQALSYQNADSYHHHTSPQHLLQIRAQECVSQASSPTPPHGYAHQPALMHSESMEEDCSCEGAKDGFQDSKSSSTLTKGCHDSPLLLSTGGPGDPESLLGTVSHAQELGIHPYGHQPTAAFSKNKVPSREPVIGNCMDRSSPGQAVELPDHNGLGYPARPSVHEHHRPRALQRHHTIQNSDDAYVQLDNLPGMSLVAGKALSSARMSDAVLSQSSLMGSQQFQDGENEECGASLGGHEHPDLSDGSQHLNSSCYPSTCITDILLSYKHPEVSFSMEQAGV
Procedure, shortened: as §1

[5] = target: T3, SIK2 (Homo sapiens, UniProt Q9H0K1); assay: biochemical; conditions: 33P radioactive SIK kinase assay, AMARA peptide, 10 μM ATP
T3 construct: purchased ThermoFisher Scientific PV4792
T3 sequence (Q9H0K1 whole entry): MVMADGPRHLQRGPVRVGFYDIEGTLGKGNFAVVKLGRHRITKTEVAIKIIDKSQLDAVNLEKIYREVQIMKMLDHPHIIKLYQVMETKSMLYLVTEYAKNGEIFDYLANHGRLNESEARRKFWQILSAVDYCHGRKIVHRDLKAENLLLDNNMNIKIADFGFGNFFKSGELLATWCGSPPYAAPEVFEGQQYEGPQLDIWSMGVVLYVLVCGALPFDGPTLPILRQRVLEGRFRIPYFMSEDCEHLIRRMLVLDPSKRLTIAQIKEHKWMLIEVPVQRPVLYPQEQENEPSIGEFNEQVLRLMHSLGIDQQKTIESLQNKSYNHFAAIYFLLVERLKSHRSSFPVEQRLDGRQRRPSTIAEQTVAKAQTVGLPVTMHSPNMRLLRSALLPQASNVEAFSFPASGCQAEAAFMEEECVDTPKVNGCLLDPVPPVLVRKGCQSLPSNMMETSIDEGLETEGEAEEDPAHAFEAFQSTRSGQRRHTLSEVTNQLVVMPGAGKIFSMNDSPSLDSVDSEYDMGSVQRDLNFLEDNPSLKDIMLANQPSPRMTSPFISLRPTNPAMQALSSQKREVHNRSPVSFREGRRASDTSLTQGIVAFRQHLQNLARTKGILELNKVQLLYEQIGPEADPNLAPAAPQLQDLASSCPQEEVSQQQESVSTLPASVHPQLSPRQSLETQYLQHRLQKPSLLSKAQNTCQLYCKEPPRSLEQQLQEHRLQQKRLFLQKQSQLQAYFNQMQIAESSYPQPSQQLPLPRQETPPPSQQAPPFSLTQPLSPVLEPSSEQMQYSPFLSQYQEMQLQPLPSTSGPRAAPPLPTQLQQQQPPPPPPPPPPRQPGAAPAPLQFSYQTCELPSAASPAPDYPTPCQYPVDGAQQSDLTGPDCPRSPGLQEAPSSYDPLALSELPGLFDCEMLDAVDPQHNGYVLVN
Procedure, shortened: as §1

Compound	EC50 [1] [nM]	IC50 [3] [nM]	IC50 [4] [nM]	IC50 [5] [nM]	IL-10 FCmax median [2]
COc1cc(-n2cnc3cc(-c4cnn(C)c4)ccc32)cc(OC)c1C(=O)NC1CC1 [Cpd 86, N-cyclopropyl-2,6-dimethoxy-4-[5-(1-methylpyrazol-4-yl)benzimidazol-1-yl]benzamide]	0.1 to 100	10 to 100	0.01 to 10	0.01 to 10	++ (>1.5-4.5)
CCNC(=O)c1c(OC)cc(-n2cnc3cc(-c4ccc(N5CCOCC5)nc4)ccc32)cc1OC [compound 3, N-ethyl-2,6-dimethoxy-4-[5-(6-morpholino-3-pyridyl)benzimidazol-1-yl]benzamide]	100 to 1000	10 to 100	10 to 100	10 to 100	++ (>1.5-4.5)
CCNC(=O)c1c(OC)cc(-n2cnc3cc(-c4cnn(CCN5CCOCC5)c4)ccc32)cc1OC [compound 4, N-ethyl-2,6-dimethoxy-4-[5-[1-(2-morpholinoethyl)pyrazol-4-yl]benzimidazol-1-yl]benzamide]	1000 to 5000	10 to 100	10 to 100	10 to 100	++ (>1.5-4.5)
CCNC(=O)c1c(OC)cc(-c2cnn3cc(-c4cnn(CC)c4)cnc23)cc1OC [compound 9, N-ethyl-4-[6-(1-ethylpyrazol-4-yl)pyrazolo[1,5-a]pyrimidin-3-yl]-2,6-dimethoxy-benzamide]	100 to 1000	10 to 100	10 to 100	10 to 100	++ (>1.5-4.5)
CCn1cc(-c2ccc3c(c2)ncn3-c2cc(OC)c(C(=O)NCCF)c(OC)c2)cn1 [compound 10, 4-[5-(1-ethylpyrazol-4-yl)benzimidazol-1-yl]-N-(2-fluoroethyl)-2,6-dimethoxy-benzamide]	100 to 1000	10 to 100	0.01 to 10	0.01 to 10	++ (>1.5-4.5)
CCn1cc(-c2ccc3c(c2)ncn3-c2cc(OC)c(C(=O)NCC(F)F)c(OC)c2)cn1 [compound 11, N-(2,2-difluoroethyl)-4-[5-(1-ethylpyrazol-4-yl)benzimidazol-1-yl]-2,6-dimethoxy-benzamide]	100 to 1000	10 to 100	0.01 to 10	0.01 to 10	++ (>1.5-4.5)
CCn1cc(-c2ccc3c(c2)ncn3-c2cc(OC)c(C(=O)NC3C[C@H]3C)c(OC)c2)cn1 (stereo partly drawn) [compound 49, 4-[5-(1-ethylpyrazol-4-yl)benzimidazol-1-yl]-2,6-dimethoxy-N-[(2R)-2-methylcyclopropyl]benzamide]	> 5000	10 to 100	10 to 100	10 to 100	++ (>1.5-4.5)
CCn1cc(-c2ccc3c(c2)ncn3-c2cc(OC)c(C(=O)NCC#N)c(OC)c2)cn1 [compound 50, N-(cyanomethyl)-4-[5-(1-ethylpyrazol-4-yl)benzimidazol-1-yl]-2,6-dimethoxy-benzamide]	100 to 1000	10 to 100	0.01 to 10	0.01 to 10	++ (>1.5-4.5)

Continued, in another order:

EC50 [1] [nM]	IC50 [3] [nM]	IC50 [4] [nM]	IC50 [5] [nM]	Compound	IL-10 FCmax median [2]
0.1 to 100	0.01 to 10	0.01 to 10	0.01 to 10	COc1cc(-n2cnc3cc(-c4cnn(C5CCN(C)CC5)c4)ccc32)cc(OC)c1C(=O)NCC(F)(F)F [Cpd 46, 2,6-dimethoxy-4-[5-[1-(1-methyl-4-piperidyl)pyrazol-4-yl]benzimidazol-1-yl]-N-(2,2,2-trifluoroethyl)benzamide]	++ (>1.5-4.5)
100 to 1000	10 to 100	10 to 100	10 to 100	COc1cc(-n2cnc3cc(-c4cnoc4)ccc32)cc(OC)c1C(=O)NCC(F)(F)F [Cpd 51, 4-(5-isoxazol-4-ylbenzimidazol-1-yl)-2,6-dimethoxy-N-(2,2,2-trifluoroethyl)benzamide]	++ (>1.5-4.5)
100 to 1000	10 to 100	10 to 100	10 to 100	COc1cc(-c2cnc3cc(-c4cnn(C)c4)ccn23)cc(C)c1C(=O)NCC(F)(F)F [Cpd 206, 2-methoxy-6-methyl-4-[7-(1-methylpyrazol-4-yl)imidazo[1,2-a]pyridin-3-yl]-N-(2,2,2-trifluoroethyl)benzamide]	+++ (>4.5)
> 5000	0.01 to 10	0.01 to 10	0.01 to 10	COc1cc(-c2cnc3cc(-c4cnn(CC(=O)O)c4)ccn23)cc(OC)c1C(=O)NCC(F)(F)F [Cpd 228, 2-[4-[3-[3,5-dimethoxy-4-(2,2,2-trifluoroethyl-carbamoyl)phenyl]imidazo[1,2-a]pyridin-7-yl]pyrazol-1-yl]acetic acid]	++ (>1.5-4.5)
100 to 1000	10 to 100	10 to 100	0.01 to 10	CCn1cc(-c2cnc3c(-c4cc(OC)c(C(=O)NCC(F)(F)F)c(OC)c4)cnn3c2)cn1 [compound 20, 4-[6-(1-ethylpyrazol-4-yl)pyrazolo[1,5-a]pyrimidin-3-yl]-2,6-dimethoxy-N-(2,2,2-trifluoroethyl)benzamide]	++ (>1.5-4.5)
100 to 1000	10 to 100	10 to 100	0.01 to 10	COc1cc(-c2cnn3cc(-c4cnn(C)c4)cnc23)cc(OC)c1C(=O)NCC(F)F [compound 24, N-(2,2-difluoroethyl)-2,6-dimethoxy-4-[6-(1-methylpyrazol-4-yl)pyrazolo[1,5-a]pyrimidin-3-yl]benzamide]	++ (>1.5-4.5)
> 5000	0.01 to 10	0.01 to 10	0.01 to 10	COc1cc(-n2cnc3cc(-c4cnn(CCO)c4)ccc32)cc(OC)c1C(=O)NCC(F)(F)F [compound 33, 4-[5-[1-(2-hydroxyethyl)pyrazol-4-yl]benzimidazol-1-yl]-2,6-dimethoxy-N-(2,2,2-trifluoroethyl)benzamide]	++ (>1.5-4.5)
0.1 to 100	10 to 100	0.01 to 10	0.01 to 10	COc1cc(-n2cnc3cc(-c4cnn(CC#N)c4)ccc32)cc(OC)c1C(=O)NCC(F)(F)F [compound 40, 4-[5-[1-(cyanomethyl)pyrazol-4-yl]benzimidazol-1-yl]-2,6-dimethoxy-N-(2,2,2-trifIuoroethyl)benzamide]	++ (>1.5-4.5)
100 to 1000	10 to 100	0.01 to 10	0.01 to 10	COc1cc(-n2cnc3cc(-c4cnn(CCN5CCOCC5)c4)ccc32)cc(OC)c1C(=O)NCC(F)(F)F [compound 41, 2,6-dimethoxy-4-[5-[1-(2-morpholinoethyl)pyrazol-4-yl]benzimidazol-1-yl]-N-(2,2,2-trifluoroethyl)benzamide]	++ (>1.5-4.5)
